Legend:
[1] = tested on: oilseed rape homozygous for HETO139 and HETO134 (139-134); test: Field herbicide tolerance, visible phytotoxicity (ALS I W574L, ALS III P197S-D376E); assay type: in vivo, Brassica napus; details: gai/ha: imazamox 40, bispyribac-sodium 50, propoxycarbazone-sodium 70, mesosulfuron-methyl 60, pyroxsulam 12.5 + cloquintocet-mexyl 37.5, each + rapeseed oil methylated 366.5
Source text: (§1) Seeds of spring oilseed rape homozygous for HETO139 and HETO134 were sown in a field according to typical practical agricultural methods together with seeds homozygous for HETO134 and HETO133 (comprising a W574L mutation on ALS III, which were obtained in the same way as HETO134), and with seeds homozygous for HETO134 and HETO132 (comprising a P197S and a W574L mutation on ALS III, which were obtained in essentially the same way as HETO139). Several ALS inhibitor herbicides were applied to the oilseed rape plants by using specific spray equipment for small plot applications.

[2] = tested on: oilseed rape homozygous for HETO132 and HETO134 (132-134); test: Field herbicide tolerance, visible phytotoxicity (ALS I W574L, ALS III P197S-W574L); assay type: in vivo, Brassica napus; details: gai/ha: imazamox 40, bispyribac-sodium 50, propoxycarbazone-sodium 70, mesosulfuron-methyl 60, pyroxsulam 12.5 + cloquintocet-mexyl 37.5, each + rapeseed oil methylated 366.5
Source text: as §1

[3] = tested on: wild-type (WT) oilseed rape; test: Field herbicide tolerance, visible phytotoxicity; assay type: in vivo, Brassica napus; details: gai/ha: imazamox 40, bispyribac-sodium 50, propoxycarbazone-sodium 70, mesosulfuron-methyl 60, pyroxsulam 12.5 + cloquintocet-mexyl 37.5, each + rapeseed oil methylated 366.5
[4] = tested on: oilseed rape homozygous for HETO133 and HETO134 (133-134); test: Field herbicide tolerance, visible phytotoxicity (ALS I W574L, ALS III W574L); assay type: in vivo, Brassica napus; details: gai/ha: imazamox 40, bispyribac-sodium 50, propoxycarbazone-sodium 70, mesosulfuron-methyl 60, pyroxsulam 12.5 + cloquintocet-mexyl 37.5, each + rapeseed oil methylated 366.5
Source text: as §1

AHAS P197S = AHAS P197S (Arabidopsis thaliana, UniProt P17597, E575Q/P197S); assay type: biochemical
Chain of AHAS P197S (P17597 56-670 P197S/E575Q): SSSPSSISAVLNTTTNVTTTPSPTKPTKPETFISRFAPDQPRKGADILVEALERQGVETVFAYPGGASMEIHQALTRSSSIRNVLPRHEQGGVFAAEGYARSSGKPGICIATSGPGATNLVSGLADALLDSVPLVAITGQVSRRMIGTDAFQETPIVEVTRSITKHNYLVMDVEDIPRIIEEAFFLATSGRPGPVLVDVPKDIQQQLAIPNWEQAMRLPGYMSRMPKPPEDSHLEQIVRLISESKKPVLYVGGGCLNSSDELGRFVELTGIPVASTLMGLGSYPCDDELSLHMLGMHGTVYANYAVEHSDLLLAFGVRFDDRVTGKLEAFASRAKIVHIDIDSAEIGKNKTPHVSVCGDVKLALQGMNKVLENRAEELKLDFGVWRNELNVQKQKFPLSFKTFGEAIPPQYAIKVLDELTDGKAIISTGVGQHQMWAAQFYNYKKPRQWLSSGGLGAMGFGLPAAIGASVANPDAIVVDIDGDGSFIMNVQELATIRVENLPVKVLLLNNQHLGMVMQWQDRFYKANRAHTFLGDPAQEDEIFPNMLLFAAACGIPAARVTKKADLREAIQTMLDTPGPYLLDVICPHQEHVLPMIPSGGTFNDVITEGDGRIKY
Procedure: (§2) Bacteria are grown at 37° C. in LB-medium containing 100 mg/l carbenicillin and 25 mg/l canamycin, induced with 1 mM isopropyl-β-D-thiogalactopyranoside at an OD600 of 0.6, cultivated for 16 hours at 18° C. and harvested by, e.g., centrifugation. Bacterial pellets are resuspended in 100 mM sodium phosphate buffer pH 7.0 containing 0.1 mM thiamine-pyrophosphate, 1 mM MgCl2, and 1 μM FAD at a concentration of 1 gram wet weight per 25 ml of buffer and disrupted by, e.g., sonification. The crude protein extract obtained after centrifugation is used for ALS activity measurements.
(§3) ALS protein can be extracted from leaves or tissue cultures, such as B. napus or B. juncea leaves, or B. napus or B. juncea tissue cultures as described by Ray (Plant Physiol, 1984, 75:827-831). An ALS assays can be carried out in 96-well microtiter plates using a modification of the procedure described by Ray (1984): The reaction mixture contains 20 mM potassium phosphate buffer pH 7.0, 20 mM sodium pyruvate, 0.45 mM thiamine-pyrophosphate, 0.45 mM MgCl2, 9 μM FAD. ALS enzyme and various concentrations of ALS inhibitors can be mixed in a final volume of 90 μl Assays can be initiated by adding enzyme and the assays can be terminated after 75 min incubation at 30° C. by the addition of 40 μl 0.5 M H2SO4.

AHAS W574L = AHAS W574L (Arabidopsis thaliana, UniProt P17597, E575Q/W574L); assay type: biochemical
Chain of AHAS W574L (P17597 56-670 W574L/E575Q): as the sequence (P17597 56-670 P197S/E575Q) above, with S142P, W519L counted along it
Procedure: as §2, §3

AHAS P197S-D376E = AHAS P197S-D376E (Arabidopsis thaliana, UniProt P17597, D376E/E575Q/P197S); test: biochemical; details: for Resistance Factor: AHAS P197S-D376E
Chain of AHAS P197S-D376E (P17597 56-670 P197S/D376E/E575Q): as the sequence (P17597 56-670 P197S/E575Q) above, with D321E counted along it
Procedure: as §2, §3

AHAS P197S-W574L = AHAS P197S-W574L (Arabidopsis thaliana, UniProt P17597, E575Q/P197S/W574L); test: biochemical; details: for Resistance Factor: AHAS P197S-W574L
Chain of AHAS P197S-W574L (P17597 56-670 P197S/W574L/E575Q): as the sequence (P17597 56-670 P197S/E575Q) above, with W519L counted along it
Procedure: as §2, §3

AHAS D376E-W574L = AHAS D376E-W574L (Arabidopsis thaliana, UniProt P17597, D376E/E575Q/W574L); test: biochemical; details: for Resistance Factor: AHAS D376E-W574L
Chain of AHAS D376E-W574L (P17597 56-670 D376E/W574L/E575Q): as the sequence (P17597 56-670 P197S/E575Q) above, with S142P, D321E, W519L counted along it
Procedure: as §2, §3

AHAS P197S-D376E-W574L = AHAS P197S-D376E-W574L (Arabidopsis thaliana, UniProt P17597, D376E/E575Q/P197S/W574L); test: biochemical; details: for Resistance Factor: AHAS P197S-D376E-W574L
Chain of AHAS P197S-D376E-W574L (P17597 56-670 P197S/D376E/W574L/E575Q): as the sequence (P17597 56-670 P197S/E575Q) above, with D321E, W519L counted along it
Procedure: as §2, §3

AHAS D376E = AHAS D376E (Arabidopsis thaliana, UniProt P17597, D376E/E575Q); test: biochemical; details: for Resistance Factor: AHAS D376E
Chain of AHAS D376E (P17597 56-670 D376E/E575Q): as the sequence (P17597 56-670 P197S/E575Q) above, with S142P, D321E counted along it
Procedure: as §2, §3

| SMILES | Percentage phytotoxicity ([1]; 9 DAA) | Percentage phytotoxicity ([1]; 16 DAA) | Percentage phytotoxicity ([1]; 24 DAA) | Percentage phytotoxicity ([2]; 9 DAA) | Percentage phytotoxicity ([2]; 16 DAA) | Percentage phytotoxicity ([2]; 24 DAA) | Percentage phytotoxicity ([3]; 9 DAA) | Percentage phytotoxicity ([3]; 16 DAA) | Resistance Factor (AHAS P197S) | Resistance Factor (AHAS W574L) | IC50 (AHAS P197S-D376E) | Resistance Factor (AHAS P197S-D376E) | IC50 (AHAS P197S-W574L) | Resistance Factor (AHAS P197S-W574L) | IC50 (AHAS D376E-W574L) | Resistance Factor (AHAS D376E-W574L) | IC50 (AHAS P197S-D376E-W574L) | Resistance Factor (AHAS P197S-D376E-W574L) | IC50 (AHAS D376E) | Resistance Factor (AHAS D376E) | further results |
| --- | --- | --- | --- | --- | --- | --- | --- | --- | --- | --- | --- | --- | --- | --- | --- | --- | --- | --- | --- | --- | --- |
| CCCOc1nn(C(=O)[N-]S(=O)(=O)c2ccccc2C(=O)OC)c(=O)n1C.[Na+] [PROPOXYCARBAZONE-SODIUM, propoxycarbazone-sodium] | 15% | 20% | 1.7% | 40% | 36.7% | 11.7% | 76.7% | 97% |  |  |  |  |  |  |  |  |  |  |  |  | Percentage phytotoxicity ([3]; 24 DAA): 97.7%; Percentage phytotoxicity ([4]; 9 DAA): 53.3%; Percentage phytotoxicity ([4]; 16 DAA): 82.7%; Percentage phytotoxicity ([4]; 24 DAA): 76.7% |
| COCc1cnc(C2=NC(C)(C(C)C)C(=O)N2)c(C(=O)O)c1 (stereo not drawn) [Imazamox, imazamox] | 13.3% | 13.3% | 0% | 6.7% | 8.7% | 0% | 73.3% | 98% | 1 | >22 | > 100 µM | >22 | > 100 µM | >22 | > 100 µM | >22 | > 100 µM | >22 | 50.1 µM | 11 | Percentage phytotoxicity ([3]; 24 DAA): 99%; Percentage phytotoxicity ([4]; 9 DAA): 6.7%; Percentage phytotoxicity ([4]; 16 DAA): 10%; Percentage phytotoxicity ([4]; 24 DAA): 0% |
| COC(=O)c1ccc(CNS(C)(=O)=O)cc1S(=O)(=O)NC(=O)Nc1nc(OC)cc(OC)n1 [Mesosulfuron-methyl, mesosulfuron-methyl] | 9.3% | 13.3% | 5% | 11.7% | 11.7% | 20.3% | 76.7% | 98% | 65 | 25770 |  |  |  | >64730 |  | >64730 |  | >64730 |  | 12915 | Percentage phytotoxicity ([3]; 24 DAA): 96%; Percentage phytotoxicity ([4]; 9 DAA): 11.7%; Percentage phytotoxicity ([4]; 16 DAA): 13.3%; Percentage phytotoxicity ([4]; 24 DAA): 3.3% |
| COc1cc(OC)nc(Oc2cccc(Oc3nc(OC)cc(OC)n3)c2C(=O)O)n1 [Bispyribac-sodium, bispyribac-sodium] | 40% | 65% | 43.3% | 46.7% | 71.7% | 43.3% | 76.7% | 98.3% | 4 | 447 | 7.94 µM | 447 | > 100 µM | >5623 | > 100 µM | >5623 | > 100 µM | >5623 | 1 µM | 56 | Percentage phytotoxicity ([3]; 24 DAA): 100%; Percentage phytotoxicity ([4]; 9 DAA): 56.7%; Percentage phytotoxicity ([4]; 16 DAA): 88.3%; Percentage phytotoxicity ([4]; 24 DAA): 92.7% |
| CCCOc1nn(C(=O)[N-]S(=O)(=O)c2ccccc2C(=O)OC)c(=O)n1C.[Na+] [Propoxycarbazone] |  |  |  |  |  |  |  |  | 147 | 293 |  | >4641 |  | >4641 |  | >4641 |  | >4641 |  | 1468 |  |
| COc1cc(OC)nc(NC(=O)NS(=O)(=O)c2ncccc2C(F)(F)F)n1 [Flazasulfuron, flazasulfuron] |  |  |  |  |  |  |  |  | 120 | 3802 | > 100 µM | >120226 | > 100 µM | >120226 | > 100 µM | >120226 | > 100 µM | >120226 | 0.631 µM | 759 |  |
| COc1cc(OC)nc(NC(=O)NS(=O)(=O)N(C)S(C)(=O)=O)n1 [Amidosulfuron, amidosulfuron] |  |  |  |  |  |  |  |  | >488 | >488 | > 100 µM | >488 | > 100 µM | >488 | > 100 µM | >488 | > 100 µM | >488 | > 100 µM | >488 |  |
| COC(=O)c1csc(C)c1S(=O)(=O)NC(=O)n1nc(OC)n(C)c1=O [Thiencarbazone-methyl, thiencarbazone-methyl] |  |  |  |  |  |  |  |  | 1173 | 1173 |  | >7399 |  | >7399 |  | >7399 |  | >7399 |  | 371 |  |
| COC(=O)c1ccccc1S(=O)(=O)NC(=O)Nc1nc(C)nc(OC)n1 [Metsulfuron-methyl, metsulfuron-methyl] |  |  |  |  |  |  |  |  | 38 | 755 |  | >7547 |  | >7547 |  | >7547 |  | >7547 |  | 239 |  |
| COC(=O)c1sccc1S(=O)(=O)NC(=O)Nc1nc(C)nc(OC)n1 [Thifensulfuron-Methyl, thifensulfuron-methyl] |  |  |  |  |  |  |  |  | 200 | 1585 | > 100 µM | >2511 | > 100 µM | >2511 | > 100 µM | >2511 | > 100 µM | >2511 | 25.1 µM | 631 |  |
| COc1cc(OC)n2nc(S(=O)(=O)Nc3c(Cl)ccc(C)c3Cl)nc2n1 [Metosulam, metosulam] |  |  |  |  |  |  |  |  | 457 | 5754 | > 100 µM | >28840 | > 100 µM | >28840 | > 100 µM | >28840 | > 100 µM | >28840 | 2 µM | 575 |  |
| COC(=O)c1ccc(C(F)(F)F)nc1S(=O)(=O)NC(=O)Nc1nc(OC)cc(OC)n1 [Flupyrsulfuron-methyl] |  |  |  |  |  |  |  |  |  |  |  | >47863 |  | >47863 |  | >47863 |  | >47863 |  | 2399 |  |
| COC(=O)c1ccc(I)cc1S(=O)(=O)[N-]C(=O)Nc1nc(C)nc(OC)n1.[Na+] [Iodosulfuron-methy-sodium, iodosulfuron-methyl-sodium] |  |  |  |  |  |  |  |  | 139 | 555 |  | >35030 |  | >35030 |  | >35030 |  | >35030 |  | 3503 |  |

Source: patent US20160298129A1, “ALS INHIBITOR HERBICIDE TOLERANT MUTANT PLANTS” (BAYER CROPSCIENCE NV, priority 2013, published 2016)
